Publication PMC7037636, “Synthesis of New Series of 2-C-(β-D-glucopyranosyl)-Pyrimidines and Their Evaluation as Inhibitors of Some Glycoenzymes” (Molecules, 2020)

Biological target: T1, bovine liver β-galactosidase
T1 construct: gene GLB1; commercial native enzyme from bovine liver (Sigma-Aldrich)
Test: PNP-β-Gal hydrolysis, absorbance at […] nm
Format: biochemical, Bos taurus
Conditions: 1 mM PNP-β-Gal, citrate-phosphate buffer pH 7.3, 37 °C, 0.12 mg/mL enzyme; read-out: Inh.

CCOC(=O)c1c(-c2ccccc2)nc([C@@H]2O[C@H](CO)[C@@H](O)[C@H](O)[C@H]2O)[nH]c1=O [11h, Ethyl 2-(β-D-glucopyranosyl)-4-phenyl-6-oxo-1,6-dihydropyrimidine-5-carboxylate]
IC50: 294 ± 50 µM
